# Article PMC8868331, “Hydroxamic Acid as a Potent Metal-Binding Group for Inhibiting Tyrosinase” (Antioxidants, 2022)
# Where two headings read alike, the source gives them in different places.
# Assays:
# tyrosinase [1] = target: tyrosinase (Agaricus bisporus, UniProt C7FF04); test: Enzyme-inhibitory kinetics (Michaelis-Menten fitting with inhibition models); type: biochemical, mushroom; details: for Kinetics model (mode of inhibition): model chosen by F-test on reduced χ2
# Experimental: Enzyme-inhibitory kinetics—Upon varying the substrate and inhibitor concentrations, the rates of product generation were measured. Simultaneous nonlinear fitting of all the profiles in an inhibitor was performed by minimizing the ꭓ^2-value, the sum of the squared differences in theoretical and experimental values, in the Michaelis–Menten equations assuming competitive, uncompetitive, noncompetitive, and mixed models. […] Reduced ꭓ^2-values, ꭓ^2-values divided by the difference in the numbers of input data and fitting parameters, were compared between the models based on the F-test to identify the most appropriate model.
# The inhibitory kinetic experiments provide information for understanding the inhibition by small molecules. The rates of product generation were measured for a series of paired substrate and inhibitor concentrations. Subsequent nonlinear fitting using the Michaelis−Menten equations extended with inhibitory models and constants produced the inhibition mode and the binding constant.
# Figure 4F lists the parameters for inhibition. […] However, one should be careful not to overinterpret the simulated modes and Ki values. The modes were chosen using the F-test, comparing reduced χ^2-values from each model.
# [2] = target: mushroom tyrosinase from Agaricus bisporus (Agaricus bisporus, UniProt C7FF04); test: Enzyme-activity assay with mushroom tyrosinase, L-DOPA substrate, dopachrome absorbance at 475 nm; type: biochemical
# [3] = target: T1, mammalian tyrosinase in B16F10 cell lysates (Mus musculus, UniProt P11344); test: Cell-lysate-based tyrosinase activity assay; type: biochemical, murine; details: 50 μM, relative to untreated control
# T1 construct: The cell extracts having tyrosinase activity were prepared; host or cells: B16F10 murine melanoma cells, stimulated with 3-isobutyl-1-methylxanthine, lysate
# T1 sequence (P11344 19-533): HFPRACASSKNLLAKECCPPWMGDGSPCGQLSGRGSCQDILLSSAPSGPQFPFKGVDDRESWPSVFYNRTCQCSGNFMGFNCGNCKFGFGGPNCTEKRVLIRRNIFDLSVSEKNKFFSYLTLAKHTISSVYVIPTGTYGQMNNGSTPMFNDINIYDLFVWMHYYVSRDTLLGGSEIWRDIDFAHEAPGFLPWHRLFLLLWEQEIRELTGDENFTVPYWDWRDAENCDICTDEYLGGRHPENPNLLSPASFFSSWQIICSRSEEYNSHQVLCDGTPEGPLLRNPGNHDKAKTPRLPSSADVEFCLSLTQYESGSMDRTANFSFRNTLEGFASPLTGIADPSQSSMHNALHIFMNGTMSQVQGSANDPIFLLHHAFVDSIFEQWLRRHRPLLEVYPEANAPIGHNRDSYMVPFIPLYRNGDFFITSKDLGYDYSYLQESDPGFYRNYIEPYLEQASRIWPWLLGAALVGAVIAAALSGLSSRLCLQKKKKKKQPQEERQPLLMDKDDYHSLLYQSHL
# Experimental: Cell-lysate-based activity assays with inhibitors—Cell-lysate-based assays were performed using B16F10 murine melanoma cells obtained from the Korean Cell Line Bank (Seoul, Korea). The B16F10 cells were grown to a density of 1 × 10^5 cells in Dulbecco’s modified Eagle’s medium supplemented with 10% fetal bovine serum and 1% penicillin−streptomycin at 37 °C under 5% CO2. The cells were incubated for 48 h after the addition of 100 μM 3-isobutyl-1-methylxanthine. The cell extracts having tyrosinase activity were prepared.
# The melanin quantification assay and the cell-lysate-based activity assay were used for confirming the inhibition of mammalian tyrosinases. Unfortunately, quantifying melanin content using hydroxamate-containing molecules is not feasible because anticancer agents affect cell viability. Therefore, we evaluated tyrosinase activities using B16F10 cell lysates in a small-molecule-concentration-dependent manner.
# [4] = system: arachidonate 5-lipoxygenase; design: method as in PMID 3820229; details: cited from earlier work
# [5] = system: indoleamine 2,3-dioxygenase; design: method as in PMID 26717206; details: cited from earlier work
# carbonic anhydrase = system: carbonic anhydrase; design: method as in PMID 22836518; details: cited from earlier work
# mushroom tyrosinase = mushroom tyrosinase (Agaricus bisporus, UniProt C7FF04); test: Differential scanning fluorimetry (DSF) with SYPRO Orange; type: binding; details: 500 μM inhibitor; for Tm: mean ± SD of three experiments, DMSO control 49.16
# Experimental: Differential scanning fluorimetry—Differential scanning fluorimetry (DSF) was used to characterize the direct binding of inhibitors to tyrosinase. In the absence and presence of 500 μM inhibitor, SYPRO® Orange was added to the enzyme solution. […] Time- and temperature-dependent signals were observed using the RT-PCR CFX96 system from BioRad (Hercules, CA, USA). The following equation was nonlinearly minimized to determine the mid-point melting temperature (Tm). I(T)=LL+UL−LL/[1+exp(Tm−T/a)] where UL and LL indicate the top and baseline of the curves, respectively, and a indicates the steepness of the slope.
# We used differential scanning fluorimetry (DSF) to verify whether active small molecules identified by biochemical assays bound to tyrosinase directly. DSF was used to evaluate the fluorescence profiles of the dye SYPRO® Orange in a mixture with the protein upon elevating the temperature. The alteration in the unfolding process in the presence of a direct binder can shift the DSF pattern.
# mandelate racemase = system: mandelate racemase; design: method as in PMID 17055725; details: cited from earlier work
# tyrosinase [6] = details: cited from earlier work; for IC50: ChEMBL-registered tyrosinase inhibitor
# [7] = shift toward lower temperature against DMSO
# [8] = mushroom tyrosinase, concentration-dependent profile (Figure 2)
# Sequence of mushroom tyrosinase from Agaricus bisporus (C7FF04 1-392): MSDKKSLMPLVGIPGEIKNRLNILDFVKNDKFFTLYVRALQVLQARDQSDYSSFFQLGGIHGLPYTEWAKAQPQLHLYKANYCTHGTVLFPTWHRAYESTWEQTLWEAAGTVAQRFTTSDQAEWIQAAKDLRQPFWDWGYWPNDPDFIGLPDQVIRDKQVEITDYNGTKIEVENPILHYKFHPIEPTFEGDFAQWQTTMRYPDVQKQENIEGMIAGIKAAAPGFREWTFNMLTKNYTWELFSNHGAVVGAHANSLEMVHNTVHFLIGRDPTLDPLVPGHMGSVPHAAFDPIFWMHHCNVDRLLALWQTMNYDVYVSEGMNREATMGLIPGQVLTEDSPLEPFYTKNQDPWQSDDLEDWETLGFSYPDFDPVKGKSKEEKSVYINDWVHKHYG
# Sequence of tyrosinase (Agaricus bisporus, UniProt C7FF04) (C7FF04 1-392): as above
# Sequence of mushroom tyrosinase (C7FF04 1-392 limits assumed): as the sequence (C7FF04 1-392) above
smiles,measurement,setting,value
CC(=O)NO [Acetohydroxamic acid],Kinetics model (mode of inhibition),tyrosinase [1],noncompetitive
same,Ki,"[2]; inhibitory constant converted from IC50 (Cheng-Prusoff), 5 nM enzyme, 500 μM L-DOPA, ± is SD from Monte-Carlo simulation, read-out: Ki",38 ± 8 µM
O=C(NO)c1ccccc1 [Benzohydroxamic acid],Decrease of tyrosinase activity,[3],approximately 97%
same,Ki,tyrosinase [1],0.128 µM
same,Kinetics model (mode of inhibition),tyrosinase [1],noncompetitive
same,Ki,[2],0.007 ± 0.001 µM
same,Inhibition of arachidonate 5-lipoxygenase (in words),[4],μM range
same,"Inhibition of indoleamine 2,3-dioxygenase (in words)",[5],μM range
same,Inhibition of carbonic anhydrase (in words),carbonic anhydrase,μM range
same,Tm,mushroom tyrosinase,47.15 ± 0.07 °C
same,ΔTm,mushroom tyrosinase; shift toward lower temperature,2.01 degrees
same,ΔTm,mushroom tyrosinase; [7],2.01 °
same,Inhibition of mandelate racemase (in words),mandelate racemase,μM range
CCCC(=O)NO [Butyrylhydroxamic acid],Ki,[2]; read-out: Ki,32 ± 5 µM
Oc1ccc(-c2nc3ccccc3s2)c(O)c1 [CHEMBL1408767],IC50,tyrosinase [6]; ref 61 (supplement ref 7),0.01 µM
CCN(CC)C(=O)/C=C/c1ccc(O)cc1O [CHEMBL4463984],IC50,tyrosinase [6]; ref 62 (supplement ref 8),0.011 µM
NCC(=O)NO [Glycine hydroxamate],Inhibition of tyrosinase (in words),tyrosinase [6],comparable inhibitory activity to arbutin
CC(=O)NO [N-Hydroxyacetamide],Ki,"[2]; inhibitory constant converted from IC50 (Cheng-Prusoff), 5 nM enzyme, 500 μM L-DOPA, read-out: Ki",> 1000 µM
same,Inhibition of tyrosinase (in words),[2]; [8],scarcely inhibited
Cc1[nH]c2ccccc2c1CCNCc1ccc(/C=C/C(=O)NO)cc1 [Panobinostat],Kinetics model (mode of inhibition),tyrosinase [1],competitive
same,Ki,"tyrosinase [1]; simultaneous nonlinear fit, read-out: Ki (simulated inhibitory constant from kinetics fit)",0.29 µM
same,Ki values as worded in the text (words or range with mixed units),[2]; mushroom tyrosinase,submicromolar range
same,Ki,[2]; read-out: Ki,0.04 ± 0.005 µM
same,Tm,mushroom tyrosinase,46.72 ± 0.06 °C
same,ΔTm,mushroom tyrosinase; shift toward lower temperature,2.44 degrees
same,ΔTm,mushroom tyrosinase; [7],2.44 °
C/C=C1\NC(=O)[C@H]2CSSCC/C=C/[C@H](CC(=O)N[C@H](C(C)C)C(=O)N2)OC(=O)[C@H](C(C)C)NC1=O [Romidepsin],Inhibition of tyrosinase (in words),[2],inhibited very weakly
same,Ki,[2],> 500 µM
O=C(CCCCCN1C(=O)c2cccc3cccc(c23)C1=O)NO [Scriptaid],Kinetics model (mode of inhibition),tyrosinase [1],competitive
same,Ki,[2],0.18 ± 0.021 µM
same,Tm,mushroom tyrosinase,47.31 ± 0.07 °C
same,ΔTm,mushroom tyrosinase; shift toward lower temperature,1.85 degrees
same,ΔTm,mushroom tyrosinase; [7],1.85 °
O=C(CCCCCCC(=O)NO)NO [Suberohydroxamic acid],Ki,[2]; read-out: Ki,1 ± 0.2 µM
CC(/C=C/C(=O)NO)=C\[C@@H](C)C(=O)c1ccc(N(C)C)cc1 [Trichostatin A],Ki,"tyrosinase [1]; Ki for apo state (mixed model), first value, apo state",4.5 µM
same,Ki,"tyrosinase [1]; Ki for holo state (mixed model), second value, holo state",37 µM
same,Kinetics model (mode of inhibition),tyrosinase [1],mixed
same,Ki,[2],1 ± 0.1 µM
same,Tm,mushroom tyrosinase,46.55 ± 0.07 °C
O=c1cccccc1O [Tropolone],Ki,[2]; read-out: Ki,0.043 ± 0.003 µM
CCCC(CCC)C(=O)O [Valproic acid],Inhibition of tyrosinase (in words),[2]; [8],inhibited very weakly
same,Ki,[2]; read-out: Ki,> 500 µM
